The target of data set [1] is CYP3A4 (Homo sapiens, UniProt P08684). The experiment in a line: Cytochrome P450 inhibition assay, CYP3A4. The format is in vitro ADME.
How the values of data set [2] were obtained:
The GSH adduct formation test aims for the identification of molecules which bear the risk of forming reactive metabolites that might trigger drug-induced liver injury and drug-induced hypersensitivity reactions in patients. The compounds are incubated with liver microsomes to assess reactive metabolite formation. Glutathione is added as a nucleophile to convert eventually formed reactive species into a stable conjugate that can be analyzed by mass spectrometry. Details on the assay have been reported in Brink et al. (2014). […]

Data set [3] is described as follows: Saturation solubility in selected solvents/vehicles. The format is physicochemical. Particulars: for solubility: thermodynamic from solid; for pH of solution in HP-beta-CD 15% / pH of solution in PEG400 30% / pH of solution in Tocrisolve / pH of solution in Mixed Micelles: solubility sample. As to the method:
Saturation Solubility (= Thermodynamic Solubility)
Approximately 8.6 mg test compound per milliliter solvent/vehicle was stirred in HPLC vials (9 × 12 × 32 mm, Waters) at 350 rpm for 15 h. Samples of 10 µL each were taken and microscopically examined for presence of solid particles. If the active pharmacological ingredient (API) dissolved completely, more solid API was added, and stirring was continued for another 15 h. Addition of solid material was repeated up to 96 h or until residual solid particles could be detected. Samples of 0.5 mL were then transferred to Eppendorf Ultrafree filter tubes (Filter: PVDF 0.22 µm) and centrifuged at 14,500 rpm for 10 min. The filtrates were diluted in ethanol and analyzed for content by UPLC. The measurements were also conducted in 0.05 M aqueous phosphate buffer, fasted (FaSSIF), and fed (FeSSIF) simulated gastrointestinal fluid. […]

The target in data set [4] is T1, human CB1R (Homo sapiens, UniProt P21554).
T1 construct: host or cells: CHO

In data set [5] the target is T1, human CB1R. This is another data set of the same source.
The conditions of data set [6]: cited from earlier work; for PAMPA Peff: * at end of cell: previously published; for PAMPA %Acceptor / PAMPA %Donor / PAMPA %Membrane: * previously published.
In data set [7] the target is mouse CB2R (Mus musculus, UniProt P47936). The experiment in a line: cell-based. The format is cell-based. More on the design: bgal (beta-galactosidase fragment of the PathHunter system, named only in the cell line's name); host or cells: CHO-K1 (CHOK1mCB2_bgal). As to the method:
(§1) Assays were carried out using the PathHunter hCB1_bgal, hCB2_bgal, or mCB2_bgal CHOK1 β-arrestin recruitment assay kit (DiscoveRx, Fremont, CA, USA) as previously described. A total of 5000 cells per well were seeded in 384-well plates (Perkin Elmer, MA, USA) containing 20 μL cell culture medium and incubated for 16–18 h at 37 °C and 5% CO2. Cells were stimulated with 10 μM of each agonist or 11 increasing concentrations and incubated for 90 min at 37 °C and 5% CO2. […] The cells were incubated for 90 min at 37 °C and 5% CO2. Compounds in DMSO stock solutions were added using a HP D300 Digital Dispenser (Tecan, Mannedorf, Switzerland). The final concentration of organic solvent per assay point was ≤ 0.1%. The PathHunter Detection mixture was used, according to the manufacturer’s protocol, to determine the β-galactosidase enzyme activity. Detection mixture, 12 μL per well, was added and the plate was incubated for 1 h in the dark at room temperature. Chemiluminescence, indicated as relative light unit, was measured on an EnVision multilabel plate reader (Perkin Elmer, MA, USA).

Data set [8] deals with T2, human CB2R (Homo sapiens, UniProt P34972).
T2 construct: bgal (beta-galactosidase fragment of the PathHunter system, named only in the cell line's name); host or cells: CHO-K1 (CHOK1hCB2_bgal)
The experiment in a line: PathHunter β-arrestin recruitment assay, hCB2R. The class given is cell-based. The method, then: as §1
(Recruitment of arrestin is a read-out of receptor activation apart from second messengers.)

The conditions of data set [9]: human and mouse liver microsomes; underlying data previously published; cited from earlier work. (Liver microsomes are a subcellular fraction often used to study metabolism.)
[10] abbreviates: aqueous with cosolvent or surfactant or cyclodextrin, in demin. water, n = 1, HU308 crystalline material, read-out: Solubility in HP-beta-CD 15%.
The mark [11] stands for this setting: aqueous with cosolvent or surfactant or cyclodextrin, n = 1, RO6871085 as hydrochloride salt, HU308 crystalline material, > = saturation not achieved, read-out: Solubility in Tocrisolve.
The mark [12] stands for this setting: oil or lipid, n = 1, RO6871085 as hydrochloride salt, HU308 crystalline material, > = saturation not achieved, read-out: Solubility in MCT (Miglyol 812).
Where [13] appears, read: RO6871085 as hydrochloride salt.
The mark [14] stands for this setting: pH 6, aqueous with cosolvent or surfactant or cyclodextrin, 200 mM glycocholic acid, 200 mM lecithin in water for injection, pH 6, n = 1, RO6871085 as hydrochloride salt, read-out: Solubility in Mixed Micelles.
The mark [15] stands for this setting: [3H]-CP55940 displacement; * previously published; read-out: hCB1R: Ki; cited from earlier work.
Setting [16] is: * previously published; read-out: hCB1R: cAMP EC50; cited from earlier work.
Setting [17] is: read-out: mouse CB2R: beta arrestin EC50.
The mark [18] stands for this setting: aqueous with cosolvent or surfactant or cyclodextrin, in demin. water, n = 1, HU308 crystalline material, read-out: Solubility in PEG400 30%.

These results are taken from paper PMC6767236, “Selective Cannabinoid 2 Receptor Agonists as Potential Therapeutic Drugs for the Treatment of Endotoxin-Induced Uveitis” (Molecules, 2019).

For orientation: IC50 means the point on the concentration scale where inhibition reaches its midpoint. Broadly, the solubility is the concentration that dissolves in the medium under given conditions. Usually Ki stands for a measure of affinity in units of concentration, obtained from inhibition or displacement. The term EC50 denotes the midpoint of the concentration-response curve.

≈ marks a conversion by molar mass, not a printed value. Like-named read-outs stand apart in the source and are kept apart here. A value given as a limit tells only on which side of the number the result lay.

mouse CB2R, sequence (P47936 whole entry, the tested form may be a part): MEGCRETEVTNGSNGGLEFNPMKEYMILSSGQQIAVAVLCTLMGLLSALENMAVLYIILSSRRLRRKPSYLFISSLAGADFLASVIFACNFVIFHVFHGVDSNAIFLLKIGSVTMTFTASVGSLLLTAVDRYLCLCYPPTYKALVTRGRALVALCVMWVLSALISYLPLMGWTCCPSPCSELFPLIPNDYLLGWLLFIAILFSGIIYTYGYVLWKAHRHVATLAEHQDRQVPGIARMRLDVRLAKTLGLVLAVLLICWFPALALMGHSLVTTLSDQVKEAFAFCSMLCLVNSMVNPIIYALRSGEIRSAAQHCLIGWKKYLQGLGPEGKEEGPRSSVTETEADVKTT
T2 sequence (P34972 whole entry, the tested form may be a part): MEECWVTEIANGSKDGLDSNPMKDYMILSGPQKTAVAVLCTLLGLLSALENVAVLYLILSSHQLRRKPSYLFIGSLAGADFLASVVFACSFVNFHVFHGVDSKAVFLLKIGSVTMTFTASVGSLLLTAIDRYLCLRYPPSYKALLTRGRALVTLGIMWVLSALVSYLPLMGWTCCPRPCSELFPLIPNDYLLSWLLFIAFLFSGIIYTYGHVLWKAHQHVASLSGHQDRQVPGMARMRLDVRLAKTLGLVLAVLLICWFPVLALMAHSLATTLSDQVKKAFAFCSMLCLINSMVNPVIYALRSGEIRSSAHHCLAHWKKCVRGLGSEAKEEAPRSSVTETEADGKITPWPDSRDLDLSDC
CYP3A4, sequence (P08684 whole entry): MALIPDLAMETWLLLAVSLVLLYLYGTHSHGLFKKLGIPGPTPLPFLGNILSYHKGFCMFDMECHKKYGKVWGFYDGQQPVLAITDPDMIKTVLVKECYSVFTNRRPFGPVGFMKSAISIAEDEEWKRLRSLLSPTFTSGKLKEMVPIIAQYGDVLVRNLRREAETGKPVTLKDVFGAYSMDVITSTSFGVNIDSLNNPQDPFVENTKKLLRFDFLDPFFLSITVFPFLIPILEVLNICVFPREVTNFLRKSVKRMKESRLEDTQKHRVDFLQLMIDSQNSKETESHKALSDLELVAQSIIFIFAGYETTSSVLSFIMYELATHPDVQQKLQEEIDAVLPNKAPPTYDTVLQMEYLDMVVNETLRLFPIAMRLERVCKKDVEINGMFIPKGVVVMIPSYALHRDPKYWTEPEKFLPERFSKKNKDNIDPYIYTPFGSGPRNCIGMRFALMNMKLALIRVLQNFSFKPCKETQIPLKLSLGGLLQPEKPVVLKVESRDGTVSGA
T1 sequence (P21554 whole entry): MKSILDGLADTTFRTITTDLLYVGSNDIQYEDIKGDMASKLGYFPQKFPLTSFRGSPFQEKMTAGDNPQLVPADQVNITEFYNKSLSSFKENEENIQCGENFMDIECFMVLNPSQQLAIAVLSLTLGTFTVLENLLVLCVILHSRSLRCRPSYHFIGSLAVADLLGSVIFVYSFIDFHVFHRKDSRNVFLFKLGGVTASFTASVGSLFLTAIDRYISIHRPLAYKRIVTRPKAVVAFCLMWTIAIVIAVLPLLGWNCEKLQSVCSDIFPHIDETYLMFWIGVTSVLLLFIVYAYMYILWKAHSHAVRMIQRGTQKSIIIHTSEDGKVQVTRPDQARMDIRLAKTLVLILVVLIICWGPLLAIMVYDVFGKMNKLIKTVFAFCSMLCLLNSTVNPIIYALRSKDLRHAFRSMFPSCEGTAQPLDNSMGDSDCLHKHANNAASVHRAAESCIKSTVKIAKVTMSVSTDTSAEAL

Turning to `CCCCCCC(C)(C)c1cc(OC)c([C@H]2C=C(CO)[C@H]3C[C@@H]2C3(C)C)c(OC)c1` [HU308, {(1S,4S,5S)-4-[2,6-Dimethoxy-4-(2-methyloctan-2-yl)phenyl]-6,6-dimethylbicyclo[3.1.1]hept-2-en-2-yl}methanol, reference compound], in data set [1], the IC50 was above 50 µM. For the same compound, the “GSH Adduct Formation in Human Liver Microsomes” value (from here on “GSH Adduct Formation”) in [2] is “no adduct”. Moreover, in [3], the “solubility in Tocrisolve 100” value is on record as “considerably lower”, the “pH of solution in HP-beta-CD 15%” value turned out to be 5.7 and the “pH of solution in PEG400 30%” value was 5.1. Moreover, the solubility in data set [3] (setting [10]) came out at 20 µg/mL (≈ 0.0482 mM). In addition, in [3] (setting [11]), the solubility was determined as 1600 µg/mL. Further, the solubility in [3] (setting [12]) was above 10300 µg/mL. Besides, the “pH of solution in Tocrisolve” value in data set [3] (setting [13]) is reported as 6.1. Moreover, in data set [4] (read-out: hCB1R: Ki; [3H]-CP55940 displacement; * previously published; cited from earlier work), the Ki was 4.6 µM. For the same compound, in data set [5] (read-out: hCB1R: cAMP EC50; * previously published; cited from earlier work), the EC50 is above 10 µM. In [6], the “PAMPA Peff” value is on record as 2.53 10*-6 cm/s, the “PAMPA %Acceptor” value is listed as 3%, the “PAMPA %Donor” value was 23% and the “PAMPA %Membrane” value is 74%. For the same compound, in data set [7], the EC50 worked out at 592 nM and the “mouse CB2R: beta arrestin efficacy” value was found to be 76%.
Turning to `CCCCCCC(C)(C)c1cc(OC)c(C2=C[C@H]3CC[C@]2(CO)C3(C)C)c(OC)c1` [HU910, {(1S,4R)-2-[2,6-dimethoxy-4-(2-methyloctan-2-yl)phenyl]-7,7-dimethylbicyclo[2.2.1]hept-2-en-1-yl}methanol, reference compound], the “hCB1R beta arrestin EC50/hCB2R beta arrestin EC50” value in [8] is on record as above 275. The IC50 in [1] (read-out: IC50 CYP3A4) came to 37 µM. The “GSH Adduct Formation” value in data set [2] is reported as “no adduct”. In addition, in data set [3], the “solubility in Tocrisolve 100” value is “good solvent”, the “pH of solution in HP-beta-CD 15%” value was 6.2 and the “pH of solution in PEG400 30%” value is given as 6.0. Moreover, in data set [3] (setting [10]), the solubility was 320 µg/mL (≈ 0.772 mM). Besides, the solubility in data set [3] (setting [11]) was 19200 µg/mL. In addition, the “time of stirring to full dissolution in Tocrisolve 100” value in [3] (data not shown) is listed as “approximately 72 h”. In [3] (in demin. water, n = 1, HU308 crystalline material), the “Solubility in PEG400 30%” value was “< LOD”. Also, in [3] (setting [12]), the solubility is above 87800 µg/mL. The solubility in data set [3] (setting [14]) amounted to 4400 µg/mL. Besides, in [3] (setting [13]), the “pH of solution in Mixed Micelles” value is given as 6.2 and the “pH of solution in Tocrisolve” value is listed as 6.2. Besides, the Ki in data set [4] (setting [15]) was 3.73 µM. Further, the EC50 in [5] (setting [16]) is above 10 µM. Further, in data set [6], the “PAMPA Peff” value is on record as 0.45 10*-6 cm/s, the “PAMPA %Acceptor” value was 1%, the “PAMPA %Donor” value is 42% and the “PAMPA %Membrane” value is listed as 57%. In data set [7], the “hCB2R β-arrestin EC50/mouse CB2R β-arrestin EC50” value amounted to 0.5 and the “mouse CB2R: beta arrestin efficacy” value is recorded as 54%. For the same compound, the EC50 in data set [7] (setting [17]) turned out to be 224 nM.
With `CNC(=O)[C@@H](NC(=O)c1cc(OCC2(C)COC2)c(C2CC2)cn1)C(C)(C)C` [RO6851228, 5-Cyclopropyl-N-[(2S)-3,3-dimethyl-1-(methylamino)-1-oxobutan-2-yl]-4-[(3-methyloxetan-3-yl)methoxy]pyridine-2-carboxamide], in data set [8], the “functional behaviour in hCB2R β-arrestin assay” value is recorded as “inverse agonist” and the “hCB2R: beta arrestin efficacy” value was −18%. In data set [8] (read-out: hCB2R: beta arrestin EC50), the EC50 was 3 nM. Further, the IC50 in data set [1] (read-out: IC50 CYP3A4) was above 50 µM. Besides, the “GSH Adduct Formation” value in data set [2] is reported as “no adduct”. Besides, in data set [3], the “solubility in Tocrisolve 100” value is recorded as “good solvent”, the “pH of solution in HP-beta-CD 15%” value turned out to be 7.6 and the “pH of solution in PEG400 30%” value is listed as 7.4. Also, the solubility in data set [3] (setting [10]) was 35500 µg/mL (≈ 91.1 mM). Moreover, the solubility in [3] (setting [18]) is 5900 µg/mL (≈ 15.1 mM). Also, the solubility in data set [3] (setting [11]) is 15000 µg/mL. Also, the solubility in data set [3] (setting [12]) was above 19000 µg/mL. Further, in data set [3] (setting [14]), the solubility was above 1600 µg/mL. Also, in data set [3] (setting [13]), the “pH of solution in Mixed Micelles” value came to 6.6 and the “pH of solution in Tocrisolve” value came to 7.3. Further, in data set [4] (setting [15]), the Ki was 6.49 µM. In addition, in data set [9], the “clearance in human as well as mouse microsomes (class in words)” value is “low to medium clearances”. In addition, in data set [6], the “PAMPA Peff” value is on record as 5.17 10*-6 cm/s, the “PAMPA %Acceptor” value is recorded as 19%, the “PAMPA %Donor” value is reported as 79% and the “PAMPA %Membrane” value was 3%. In data set [7], the “activity in mouse CB2R β-arrestin assay” value is listed as “not active”. For the same compound, the EC50 in data set [7] (setting [17]) is above 30000 nM.
`CC(C)(C)c1nc(N2CC[C@H](O)C2)c2nnn(Cc3nnnn3C3CC3)c2n1` [RO6871304, (3S)-1-{5-tert-butyl-3-[(1-cyclopropyl-1H-tetrazol-5-yl)methyl]-3H-[1,2, 3]triazolo[4,5-d]pyrimidin-7-yl}pyrrolidin-3-ol]: the “hCB1R beta arrestin EC50/hCB2R beta arrestin EC50” value in data set [8] was above 1429. Moreover, in data set [1] (read-out: IC50 CYP3A4), the 50% inhibitory concentration (IC50) is above 50 µM. For the same compound, the “GSH Adduct Formation” value in data set [2] is reported as “no adduct”. Besides, in data set [3], the “solubility in Tocrisolve 100” value was “considerably lower”, the “pH of solution in HP-beta-CD 15%” value is reported as 6.0 and the “pH of solution in PEG400 30%” value turned out to be 6.1. In addition, in [3] (setting [10]), the solubility was 7200 µg/mL (≈ 18.7 mM). In addition, the solubility in [3] (setting [18]) came to 200 µg/mL (≈ 0.52 mM). Moreover, in data set [3] (setting [11]), the solubility was found to be 1300 µg/mL. For the same compound, the solubility in data set [3] (setting [12]) worked out at 2300 µg/mL. Moreover, the solubility in data set [3] (setting [14]) was above 1800 µg/mL. In data set [3] (setting [13]), the “pH of solution in Mixed Micelles” value is on record as 6.6 and the “pH of solution in Tocrisolve” value came out at 5.7. In [4] (setting [15]), the Ki is above 10 µM. In addition, the EC50 in [5] (setting [16]) was above 10 µM. Also, the “clearance in human as well as mouse microsomes (class in words)” value in [9] is “low to medium clearances”. In addition, in [6], the “PAMPA Peff” value is 3.06 10*-6 cm/s, the “PAMPA %Acceptor” value is 8%, the “PAMPA %Donor” value is recorded as 62% and the “PAMPA %Membrane” value is listed as 30%. In data set [7], the “mouse CB2R: beta arrestin efficacy” value is 94%. In addition, in [7] (setting [17]), the EC50 was 26 nM.
